We go through 13 compounds from PubChem BioAssay (NCI).

Some test systems named below: PC-3 prostate; NCI-H522 lung; RPMI-8226 leukemia; SF-268 CNS; SK-MEL-2 melanoma; MDA-MB-231 breast; CCRF-CEM leukemia; SNB-75 CNS; K-562 leukemia; BT-549 breast.
Common to all, as to assay: NCI tumour cell line growth inhibition, 48 h

Where “and” joins values, the source holds several entries; their conditions need not be identical. Identical values can stand only once.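 In this assay, cells in 96-well plates receive the compound at five concentrations for 48 hours. Endpoints are linearly interpolated between the surrounding concentrations. Definition used: TGI = concentration required for complete inhibition of growth.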

For `Cc1cc(S(=O)(=O)Nc2n[nH]c(N)n2)c(Cl)cc1Cl`, the TGI in the assay on PC-3 prostate, in the assay on NCI-H522 lung, in the assay with RPMI-8226 leukemia, in the assay on SF-268 CNS, in the assay with SK-MEL-2 melanoma and in the assay on MDA-MB-231 breast was more than 10 µM throughout. In addition, the TGI in the assay with CCRF-CEM leukemia, with SNB-75 CNS, in the assay on K-562 leukemia and in the assay on BT-549 breast was more than 10 µM each time.

In the case of `CCC(C)C1=C(O)[N+]2([O-])Oc3ccc(-c4c(O)c(O)c(-c5ccc(OC(C)=O)cc5)c(OC(C)=O)c4OC(C)=O)cc3OC2(C(C)CC)C(=O)N1O` (stereo not given), the TGI with PC-3 prostate, with NCI-H522 lung, in the assay on RPMI-8226 leukemia, in the assay on SF-268 CNS, with SK-MEL-2 melanoma and in the assay on MDA-MB-231 breast was more than 50 µM each time. Further, the TGI with CCRF-CEM leukemia is more than 50 µM; in the assay with K-562 leukemia, 49.1 µM and > 50 µM; in the assay with BT-549 breast, more than 50 µM.

`CC1(C)COC2=C(C1)C(=O)c1ccccc1C2=O`: the TGI in the assay on PC-3 prostate amounted to 3.58 µM; with NCI-H522 lung it was 3.8 µM; in the assay with RPMI-8226 leukemia, 4.45 µM; with SF-268 CNS, 3.57 µM; with SK-MEL-2 melanoma it was 3.88 µM; with MDA-MB-231 breast, 4 µM. The TGI in the assay with CCRF-CEM leukemia stood at 5.77 µM; with SNB-75 CNS it was 3.04 µM; with K-562 leukemia it was 1.52 µM; with BT-549 breast it was 3.66 µM.

In the case of `Cc1ccc2nc(-c3ccc(C(C)(C)C)cc3)oc(=O)c2c1`, the TGI was 69.6 µM in the assay with PC-3 prostate; 35 µM in the assay with NCI-H522 lung; 48.9 µM with RPMI-8226 leukemia; 70.7 µM with SF-268 CNS; 56.7 µM in the assay with SK-MEL-2 melanoma; 54.2 µM with MDA-MB-231 breast. For the same compound, the TGI worked out at 46.9 µM in the assay on CCRF-CEM leukemia, 47.7 µM in the assay on SNB-75 CNS, 51 µM with K-562 leukemia and 57.3 µM in the assay on BT-549 breast.

Take `COC1(CC[C@@H](C)COC2OC(CO)C(O)C(O)C2O)O[C@H]2C[C@H]3[C@@H]4CC=C5C[C@@H](OC6OC(CO)C(O)C(OC7OC(CO)C(O)C(O)C7O)C6OC6OC(C)C(O)C(O)C6O)CC[C@]5(C)[C@H]4CC[C@]3(C)[C@H]2[C@@H]1C` (stereo not given in full): the TGI in the assay on PC-3 prostate was 21.4 µM; in the assay on NCI-H522 lung, 15.3 µM; with RPMI-8226 leukemia, more than 88.3 µM; with SF-268 CNS, 26.4 µM; in the assay on SK-MEL-2 melanoma, 29.2 µM; in the assay on MDA-MB-231 breast, 16.5 µM. In addition, the TGI in the assay with CCRF-CEM leukemia is more than 100 µM; in the assay on SNB-75 CNS, 11.2 µM; in the assay with K-562 leukemia, more than 62.8 µM; in the assay with BT-549 breast it was 31.8 µM.

For `COc1ccc(-c2c(-c3ccccc3)c(C)nc3nc(SC)nc(SC)c23)cc1OC`, the TGI in the assay with PC-3 prostate is 41.7 µM; with NCI-H522 lung it was 35.4 µM; in the assay on RPMI-8226 leukemia it was 26.1 µM; in the assay with SF-268 CNS, more than 100 µM; in the assay on SK-MEL-2 melanoma it was 60.6 µM; in the assay with MDA-MB-231 breast, more than 100 µM. In addition, the TGI in the assay on CCRF-CEM leukemia was 23.5 µM; with SNB-75 CNS, more than 100 µM; in the assay on K-562 leukemia, 32 µM; in the assay with BT-549 breast, more than 100 µM.

With `C/C(=N\Nc1nc2ccccc2s1)c1cc2ccccc2cn1`, the TGI in the assay with PC-3 prostate is more than 100 µM; with NCI-H522 lung, 26 µM; in the assay with RPMI-8226 leukemia, more than 100 µM; in the assay with SF-268 CNS, more than 100 µM; in the assay on SK-MEL-2 melanoma it was more than 100 µM; in the assay on MDA-MB-231 breast, 33.9 µM. Further, the TGI in the assay with CCRF-CEM leukemia came out at 8.04 µM; in the assay on SNB-75 CNS, 32.4 µM; with BT-549 breast it was 45.8 µM.

For `Nc1nc(Cl)c(Cl)c(NCC2(O)CCC2)n1`, the TGI is more than 100 µM with PC-3 prostate; 40.9 µM in the assay on NCI-H522 lung; more than 100 µM in the assay with RPMI-8226 leukemia; more than 100 µM with SF-268 CNS; more than 100 µM in the assay on SK-MEL-2 melanoma; more than 100 µM in the assay on MDA-MB-231 breast. The TGI in the assay on CCRF-CEM leukemia, in the assay with SNB-75 CNS, with K-562 leukemia and with BT-549 breast was more than 100 µM each time.

For `CC(Oc1ccccc1)C(=O)NNC(=O)OC(C)(C)C` (stereo not given), the TGI with PC-3 prostate, in the assay on NCI-H522 lung, in the assay on RPMI-8226 leukemia, in the assay on SF-268 CNS, in the assay with SK-MEL-2 melanoma and in the assay with MDA-MB-231 breast was more than 100 µM in each case. Further, the TGI with CCRF-CEM leukemia, in the assay with SNB-75 CNS, in the assay on K-562 leukemia and in the assay on BT-549 breast was more than 100 µM each time.

As for `COc1cc2c(/C=C3/C(=O)Nc4ccc(Cl)cc43)c(Cl)[nH]c2cc1C`, the TGI with PC-3 prostate worked out at 11.6 µM; with NCI-H522 lung, 7.01 µM; with RPMI-8226 leukemia it was 5.13 µM; in the assay on SF-268 CNS it was 43.7 µM; in the assay with SK-MEL-2 melanoma, 29.8 µM; with MDA-MB-231 breast it was 4.62 µM. Also, the TGI in the assay on CCRF-CEM leukemia is 0.933 µM; with SNB-75 CNS it was 5.71 µM; in the assay on K-562 leukemia it was 6.3 µM; with BT-549 breast, 1.08 µM.

As to `CC(C)(NC(=O)OCc1ccccc1)C(=O)OC(=O)C(C)(C)NC(=O)OCc1ccccc1`, the TGI in the assay on PC-3 prostate, in the assay with NCI-H522 lung, with RPMI-8226 leukemia, with SK-MEL-2 melanoma, in the assay on MDA-MB-231 breast and with CCRF-CEM leukemia was more than 100 µM each time. Moreover, the TGI in the assay with SNB-75 CNS, in the assay on K-562 leukemia and with BT-549 breast was more than 100 µM each time.

`O=C(Cn1c(C(=O)c2ccccc2)nc2ccccc21)c1ccccc1`: the TGI in the assay on PC-3 prostate, in the assay with NCI-H522 lung, in the assay with RPMI-8226 leukemia, in the assay with SF-268 CNS, in the assay on SK-MEL-2 melanoma and in the assay on MDA-MB-231 breast was more than 100 µM throughout. For the same compound, the TGI in the assay on CCRF-CEM leukemia, with SNB-75 CNS and with BT-549 breast was more than 100 µM throughout.

As to `O=c1c(Cc2ccc(Cl)cc2)nnc2sc(-c3ccc(-c4ccc(Cl)cc4Cl)o3)nn12`, the TGI with PC-3 prostate, in the assay with NCI-H522 lung, with RPMI-8226 leukemia, with SF-268 CNS, in the assay with SK-MEL-2 melanoma and in the assay with MDA-MB-231 breast was more than 100 µM in each case. For the same compound, the TGI in the assay on CCRF-CEM leukemia, in the assay on K-562 leukemia and in the assay on BT-549 breast was more than 100 µM each time.
